Measured values reported in PMC4492731 (Pharmacology Research & Perspectives, 2015).
Read-outs that look alike come from different tables or passages of the source.

Legend:
[1] = not given; remark: listed apart in the source
[2] = type: in vivo, human; settings: for PCI-45227 mean AUClast / PCI-45227 mean Cmax / PCI-45227 tmax, median (range): fasted; for concentration at 2 h: rifampin plasma concentration, Study 2, day 11, 2 h after drug intake, rifampin 600 mg q.d.
[3] = standard breakfast with GFJ; ref de Vries et al. [2015]; cited from earlier work
[4] = system: Bruton’s tyrosine kinase (BTK); settings: reversible binding; ref Parmar et al. [2014]; cited from earlier work
[5] = Study 1, ibrutinib 120 mg alone, fasted
[6] = Study 2, ibrutinib 560 mg + rifampin 600 mg
[7] = Study 2, ibrutinib 560 mg alone
[8] = Study 1, ibrutinib 40 mg + ketoconazole 400 mg, fasted
[9] = Study 1, ibrutinib + ketoconazole vs ibrutinib alone

## CC(=O)N1CCN(c2ccc(OCC3COC(Cn4ccnc4)(c4ccc(Cl)cc4Cl)O3)cc2)CC1 (stereo not drawn) [ketoconazole, reference compound]
Study 1, day 7, individual values
  ketoconazole plasma concentration, two participants with very low concentrations: 231 ng/mL

## C=CC(=O)N1CCC[C@@H](n2nc(-c3ccc(Oc4ccccc4)cc3)c3c(N)ncnc32)C1 [Ibrutinib, reference compound]
[1]; Study 3, nonfasted, i.v. dose of 100 μg 13C6 PCI-32765
  AUCs of ibrutinib following i.v. administration with and without GFJ: the same
[1]; human, in vivo, 560 mg
  AUC: 529 ng·h/mL
  AUC(0-inf): 643 ng·h/mL
[2]; human, plasma, oral, 560 mg
  AUC(0-inf): 300 ng·h/mL
Study 1, ibrutinib 120 mg alone, day 1, fasted
  mean DN_AUClast of ibrutinib: 71.4 ng·h/mL
Study 1, ibrutinib 120 mg alone, day 1, fasted, healthy men
  mean DN_Cmax of ibrutinib: 11.8 ng/mL
[5]
  AUClast geometric mean: 61 ng·h/mL
human, in vivo, 120 mg
  AUC: 56 ng·h/mL
  AUC(0-inf): 71 ng·h/mL
[3]
  absolute oral bioavailability (F): 15.9%

## Nc1ncnc2c1c(-c1ccc(Oc3ccccc3)cc1)nn2[C@@H]1CCCN(C(=O)C(O)CO)C1 (stereo partly drawn) [PCI-45227]
[1]; Study 3
  effect of GFJ on tmax of PCI-45227: no effect
[1]; Study 3, oral ibrutinib
  dose-normalized PCI-45227 concentrations and AUCs with or without GFJ: comparable
[1]; Study 3, with GFJ
  Cmax metabolite-to-parent ratio: 0.32
[1]; Study 3, without GFJ
  Cmax metabolite-to-parent ratio: 1.03
[2]; [6]
  PCI-45227 mean AUClast: 374 ng·h/mL
  PCI-45227 mean Cmax: 49.9 ng/mL
  PCI-45227 tmax, median (range): 3.00 h
[2]; [7]
  PCI-45227 mean AUClast: 946 ng·h/mL
  PCI-45227 mean Cmax: 70.0 ng/mL
  PCI-45227 tmax, median (range): 2.02 h
[2]; Study 2, ibrutinib + rifampin
  metabolite to parent ratio for Cmax: 20.80
[2]; Study 2, ibrutinib alone
  metabolite to parent ratio for Cmax: 2.09
[8]
  PCI-45227 t1/2, mean (SD): 18.00 h
  PCI-45227 tmax, median (range): 4.00 h
[5]
  PCI-45227 DN_AUClast: 304 ng·h/mL
  PCI-45227 DN_Cmax: 29.1 ng/mL
  PCI-45227 t1/2, mean (SD): 11.41 h
  PCI-45227 tmax, median (range): 2.00 h
Study 1, ibrutinib + ketoconazole
  mean metabolite to parent ratio for Cmax: 0.05
[9]
  decrease of PCI-45227 DN_AUClast with ketoconazole: 1.2 times lower
  decrease of PCI-45227 DN_Cmax with ketoconazole: 2.6 times lower
Study 1, ibrutinib alone
  mean metabolite to parent ratio for Cmax: 2.64
[4]
  inhibitory activity toward BTK relative to ibrutinib: approximately 15 times lower

## CO[C@H]1/C=C/O[C@@]2(C)Oc3c(C)c(O)c4c(O)c(c(/C=N/N5CCN(C)CC5)c(O)c4c3C2=O)NC(=O)/C(C)=C\C=C\[C@H](C)[C@H](O)[C@@H](C)[C@@H](O)[C@@H](C)[C@H](OC(C)=O)[C@@H]1C [rifampin, reference compound]
[2]; human, plasma, oral, mean ± SD
  concentration at 2 h: 9250 ± 4960 ng/mL
[2]; human, plasma, oral, range
  concentration at 2 h: 289 to 18400 ng/mL
